# Results reported in US10479780B2, “Aminopyrazole derivatives” (Chugai Seiyaku Kabushiki Kaisha, priority 2015, dated 2019).
# Where two headings read alike, the source gives them in different places.
# Legend:
# Format in all cases: biochemical
# human Lck enzyme = target: T1, human Lck enzyme (Homo sapiens, UniProt P06239); assay: Lck enzyme inhibitory activity (time-resolved fluorometry, biotinylated peptide phosphorylation); conditions: read-out: LCK_IC50
# T1 construct: purchased Carna Biosciences, Inc. 08-170
# Summary of the method: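 Readout pairs a europium cryptate-labelled anti-phosphotyrosine antibody with XL665-streptavidin, measured by time-resolved fluorescence. IC50 derived from percent inhibition against untreated controls.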
# human Src enzyme = target: T2, human Src enzyme (Homo sapiens, UniProt P12931); assay: Src enzyme inhibitory activity (time-resolved fluorometry, biotinylated peptide phosphorylation); conditions: read-out: SRC_IC50
# T2 construct: purchased Carna Biosciences, Inc. 08-173
# Summary of the method: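 Compounds were tested for blocking tyrosine phosphorylation of a biotinylated peptide substrate by recombinant human Src. Phosphorylated product was quantified by time-resolved fluorometry using europium cryptate and XL665 conjugates, and IC50 was calculated against the compound-free control.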
# human Yes1 enzyme = target: T3, human Yes1 enzyme (Homo sapiens, UniProt P07947); assay: Yes1 enzyme inhibitory activity (time-resolved fluorometry, biotinylated peptide phosphorylation); conditions: read-out: YES_IC50
# T3 construct: made in house
# Summary of the method: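 Inhibition was expressed against a compound-free control to give IC50, using TR-FRET read-out (Eu-cryptate anti-pTyr antibody, streptavidin-XL665).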
# [1] = biotinylated peptide phosphorylation
# T2 sequence (P12931 whole entry): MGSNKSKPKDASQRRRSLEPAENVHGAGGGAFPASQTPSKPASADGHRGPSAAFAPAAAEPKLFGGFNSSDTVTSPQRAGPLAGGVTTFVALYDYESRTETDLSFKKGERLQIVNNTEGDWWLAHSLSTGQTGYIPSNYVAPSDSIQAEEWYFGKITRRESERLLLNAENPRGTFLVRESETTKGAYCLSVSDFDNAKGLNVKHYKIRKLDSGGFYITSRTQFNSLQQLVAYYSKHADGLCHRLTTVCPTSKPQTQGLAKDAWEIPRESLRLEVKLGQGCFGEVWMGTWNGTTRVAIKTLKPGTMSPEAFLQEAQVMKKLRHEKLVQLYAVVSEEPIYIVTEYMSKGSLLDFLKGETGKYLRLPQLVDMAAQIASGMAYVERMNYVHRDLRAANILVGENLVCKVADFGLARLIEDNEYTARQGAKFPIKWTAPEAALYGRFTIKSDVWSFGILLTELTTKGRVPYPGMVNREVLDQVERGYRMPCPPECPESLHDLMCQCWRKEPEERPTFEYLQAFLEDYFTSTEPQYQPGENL
# T1 sequence (P06239 whole entry): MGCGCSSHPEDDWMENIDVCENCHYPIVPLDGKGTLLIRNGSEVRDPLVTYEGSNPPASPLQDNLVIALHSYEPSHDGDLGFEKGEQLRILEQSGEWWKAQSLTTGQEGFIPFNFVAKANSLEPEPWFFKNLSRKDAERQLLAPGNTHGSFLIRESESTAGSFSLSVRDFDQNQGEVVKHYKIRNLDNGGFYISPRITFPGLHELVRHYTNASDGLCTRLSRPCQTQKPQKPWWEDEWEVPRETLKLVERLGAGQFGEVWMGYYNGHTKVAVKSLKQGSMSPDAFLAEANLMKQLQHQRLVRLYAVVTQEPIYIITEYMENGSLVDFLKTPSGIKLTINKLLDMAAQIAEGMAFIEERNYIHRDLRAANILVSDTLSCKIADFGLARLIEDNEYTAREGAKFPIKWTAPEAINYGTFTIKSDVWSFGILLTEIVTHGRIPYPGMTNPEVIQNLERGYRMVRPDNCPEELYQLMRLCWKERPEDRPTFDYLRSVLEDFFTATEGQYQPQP
# T3 sequence (P07947 whole entry): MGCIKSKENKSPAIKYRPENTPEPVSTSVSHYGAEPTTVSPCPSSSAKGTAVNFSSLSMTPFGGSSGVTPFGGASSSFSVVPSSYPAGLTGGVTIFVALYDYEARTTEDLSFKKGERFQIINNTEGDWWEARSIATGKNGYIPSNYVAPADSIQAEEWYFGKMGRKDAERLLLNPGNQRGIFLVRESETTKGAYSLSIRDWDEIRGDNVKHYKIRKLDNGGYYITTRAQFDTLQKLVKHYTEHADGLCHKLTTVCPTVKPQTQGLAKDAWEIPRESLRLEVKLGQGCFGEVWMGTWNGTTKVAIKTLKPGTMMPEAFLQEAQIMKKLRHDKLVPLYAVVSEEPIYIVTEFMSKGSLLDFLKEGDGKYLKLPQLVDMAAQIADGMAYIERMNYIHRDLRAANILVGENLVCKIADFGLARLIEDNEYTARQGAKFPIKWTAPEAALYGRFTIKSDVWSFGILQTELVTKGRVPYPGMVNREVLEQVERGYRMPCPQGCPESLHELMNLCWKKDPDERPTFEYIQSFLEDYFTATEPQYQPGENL
SMILES,IC50 (human Lck enzyme) [nM],IC50 (human Src enzyme) [nM],IC50 (human Yes1 enzyme) [nM],IC50 (human Lck enzyme; [1]) [nM],IC50 (human Src enzyme; [1]) [nM],IC50 (human Yes1 enzyme; [1]) [nM]
"Cc1cc(Oc2ccccc2F)ccc1-n1ncc(C(=O)c2cc3cc(OCC(F)F)c(N4C(=O)OC[C@H]4Cc4ccccc4)cc3[nH]2)c1N [Example 5-1-244, (4R)-3-[2-[5-amino-1-[4-(2-fluorophenoxy)-2-methylphenyl]pyrazole-4-carbonyl]-5-(2,2-difluoroethoxy)-1H-indol-6-yl]-4-benzyl-1,3-oxazolidin-2-one]",40,18,9.9,–,–,–
"Cc1cc(Oc2ccccc2F)ccc1-n1ncc(C(=O)c2cc3cc(OC(F)F)c(NS(=O)(=O)C4CCOCC4)cc3[nH]2)c1N [Example 5-1-390, N-[2-[5-amino-1-[4-(2-fluorophenoxy)-2-methylphenyl]pyrazole-4-carbonyl]-5-(difluoromethoxy)-1H-indol-6-yl]oxane-4-sulfonamie]",25,44,1.9,–,–,–
"Cc1cc2cc(C(=O)c3cnn(-c4cnc(Oc5c(F)cccc5F)cc4C)c3N)[nH]c2cc1NS(=O)(=O)C1CC1 [Example 4-1-017, N-[2-[5-amino-1-[6-(2,6-difluorophenoxy)-4-methylpyridin-3-yl]pyrazole-4-carbonyl]-5-methyl-1H-indol-6-yl]cyclopropanesulfonamide]",–,–,–,4.9,100,3.1
"Cc1cc(-n2ncc(C(=O)c3cc4cc(OC(F)F)c(N)cc4[nH]3)c2N)ccc1Oc1ccccc1F [Example 5-1-161, [6-amino-5-(difluoromethoxy)-1H-indol-2-yl]-[5-amino-1-[4-(2-fluorophenoxy)-3-methylphenyl]pyrazol-4-yl]methanone]",160,600,2.8,–,–,–
"Cc1cc2cc(C(=O)c3cnn(-c4ccc(Oc5ccccc5F)cc4C)c3N)[nH]c2cc1N1C(=O)[C@@H]2C[C@H](NC(=O)OCC3c4ccccc4-c4ccccc43)CN2C1=O [Example 5-1-268, 9H-fluoren-9-ylmethyl N-[(6S,7aS)-2-[2-[5-amino-1-[4-(2-fluorophenoxy)-2-methylphenyl]pyrazole-4-carbonyl]-5-methyl-1H-indol-6-yl]-1,3-dioxo-5,6,7,7a-tetrahydropyrrolo[1,2-c]imidazol-6-yl]carbamate]",31,120,12,–,–,–
"Cc1cc(Oc2ccccc2F)cc(F)c1-n1ncc(C(=O)c2cc3cc(OCC(F)F)c(NC4CCN(S(C)(=O)=O)CC4)cc3[nH]2)c1N [Example 4-23-028, [5-amino-1-[2-fluoro-4-(2-fluorophenoxy)-6-methylphenyl]pyrazol-4-yl]-[5-(2,2-difluoroethoxy)-6-[(1-methylsulfonylpiperidin-4-yl)amino]-1H-indol-2-yl]methanone]",–,–,–,41,70,20
"Cc1cc2cc(C(=O)c3cnn(-c4c(C)cc(Oc5ccccc5F)cc4F)c3N)[nH]c2cc1NS(=O)(=O)CC(=O)N1CCOCC1 [Example 4-10-009, N-[2-[5-amino-1-[2-fluoro-4-(2-fluorophenoxy)-6-methylphenyl]pyrazole-4-carbonyl]-5-methyl-1H-indol-6-yl]-2-morpholin-4-yl-2-oxoethanesulfonamide]",–,–,–,19,33,2.7
"CC(=O)N1CCC(c2cc3[nH]c(C(=O)c4cnn(-c5ccc(Oc6ccccc6F)cc5C)c4N)cc3cc2OC(F)F)CC1 [Example 4-17-002, 1-[4-[2-[5-amino-1-[4-(2-fluorophenoxy)-2-methylphenyl]pyrazole-4-carbonyl]-5-(difluoromethoxy)-1H-indol-6-yl]piperidin-1-yl]ethanone]",–,–,–,18,43,10
"Cc1cc(Oc2ccccc2F)ccc1-n1ncc(C(=O)c2cc3cc(OCC(F)F)c(N4C(=O)[C@@H]5C[C@H](NC(=O)OCC6c7ccccc7-c7ccccc76)CN5C4=O)cc3[nH]2)c1N [Example 5-1-253, 9H-fluoren-9-ylmethyl N-[(6S,7aS)-2-[2-[5-amino-1-[4-(2-fluorophenoxy)-2-methylphenyl]pyrazole-4-carbonyl]-5-(2,2-difluoroethoxy)-1H-indol-6-yl]-1,3-dioxo-5,6,7,7a-tetrahydropyrrolo[1,2-c]imidazol-6-yl] carbamate]",46,23,0.33,–,–,–
"Cc1cc2cc(C(=O)c3cnn(-c4ccc(Oc5ccccc5F)cc4C)c3N)[nH]c2cc1N1C(=O)NC2(CCNC2)C1=O (stereo not drawn) [Example 5-1-365, 3-[2-[5-amino-1-[4-(2-fluorophenoxy)-2-methylphenyl]pyrazole-4-carbonyl]-5-methyl-1H-indol-6-yl]-1,3,7-triazaspiro[4.4]nonane-2,4-dione]",5.7,18,1.5,–,–,–
"Cc1cc(Oc2ccccc2F)ccc1-n1ncc(C(=O)c2cc3cc(OC(F)F)c(NC4COC4)cc3[nH]2)c1N [Example 4-23-009, [5-amino-1-[4-(2-fluorophenoxy)-2-methylphenyl]pyrazol-4-yl]-[5-(difluoromethoxy)-6-(oxetan-3-ylamino)-1H-indol-2-yl]methanone]",–,–,–,8.9,22,3.2
"Cc1cc(Oc2ccccc2F)ccc1-n1ncc(C(=O)c2cc3cc(OCC(F)F)c(N4CCOCC4)cc3[nH]2)c1N [Example 4-1-015, [5-amino-1-[4-(2-fluorophenoxy)-2-methylphenyl]pyrazol-4-yl]-[5-(2,2-difluoroethoxy)-6-morpholin-4-yl-1H-indol-2-yl]methanone]",–,–,–,10,14,1
"Cc1cc(Oc2cccc(F)c2F)nc(C)c1-n1ncc(C(=O)c2cc3cc(F)c(NS(C)(=O)=O)cc3[nH]2)c1N [Example 5-1-053, N-[2-[5-amino-1-[6-(2,3-difluorophenoxy)-2,4-dimethylpyridin-3-yl]pyrazole-4-carbonyl]-5-fluoro-1H-indol-6-yl]methanesulfonamide]",97,430,65,–,–,–
"Cc1cc2cc(C(=O)c3cnn(-c4cnc(Oc5c(F)cccc5Cl)cc4C)c3N)[nH]c2cc1NS(C)(=O)=O [Example 4-2-064, N-[2-[5-amino-1-[6-(2-chloro-6-fluorophenoxy)-4-methylpyridin-3-yl]pyrazole-4-carbonyl]-5-methyl-1H-indol-6-yl]methanesulfonamide]",–,–,–,14,63,2.4
"Nc1c(C(=O)c2cc3cc(F)c(NS(=O)(=O)CCCF)cc3[nH]2)cnn1-c1ccc(Oc2ccccn2)cc1Cl [Example 4-2-018, N-[2-[5-amino-1-(2-chloro-4-pyridin-2-yloxyphenyl)pyrazole-4-carbonyl]-5-fluoro-1H-indol-6-yl]-3-fluoropropane-1-sulfonamide]",–,–,–,15,22,0.52
"Nc1c(C(=O)c2cc3cc(F)c(NS(=O)(=O)C4CC4)cc3[nH]2)cnn1-c1c(F)cc(Oc2cccc(F)c2F)cc1F [Example 5-1-031, N-[2-[5-amino-1-[4-(2,3-difluorophenoxy)-2,6-difluorophenyl]pyrazole-4-carbonyl]-5-fluoro-1H-indol-6-yl]cyclopropanesulfonamide]",34,220,4.1,–,–,–
"CC(=O)N1CCC(c2cc3[nH]c(C(=O)c4cnn(-c5c(C)cc(Oc6ccccc6F)cc5F)c4N)cc3cc2C)CC1 [Example 5-1-138, 1-[4-[2-[5-amino-1-[2-fluoro-4-(2-fluorophenoxy)-6-methylphenyl]pyrazole-4-carbonyl]-5-methyl-1H-indol-6-yl]piperidin-1-yl] ethanone]",42,68,3.1,–,–,–
"Cc1cc(-n2ncc(C(=O)c3cc4cc(OC5CCN(C6CCCC6)CC5)c(-c5ccccc5C)cc4[nH]3)c2N)ccc1Oc1ccccc1F [Example 5-1-335, [5-amino-1-[4-(2-fluorophenoxy)-3-methylphenyl]pyrazol-4-yl]-[5-(1-cyclopentylpiperidin-4-yl)oxy-6-(2-methylphenyl)-1H-indol-2-yl]methanone]",120,1700,2.7,–,–,–
"Cc1ccnc(S(=O)(=O)Nc2cc3[nH]c(C(=O)c4cnn(-c5cnc(Oc6ccccc6F)cc5C)c4N)cc3cc2C)c1 [Example 5-1-506, N-[2-[5-amino-1-[6-(2-fluorophenoxy)-4-methylpyridin-3-yl]pyrazole-4-carbonyl]-5-methyl-1H-indol-6-yl]-4-rmethylpyridine-2-sulfonamide]",–,–,–,99,500,3
"COc1cc2cc(C(=O)c3cnn(-c4ccc(Oc5ccccc5F)cc4C)c3N)[nH]c2cc1NS(=O)(=O)N1CCOCC1 [Example 4-12-003, N-[2-[5-amino-1-[4-(2-fluorophenoxy)-2-methylphenyl]pyrazole-4-carbonyl]-5-methoxy-1H-indol-6-yl]morpholine-4-sulfonamide]",–,–,–,14,45,0.54
"Cc1cc(Oc2cc(F)ccc2F)ncc1-n1ncc(C(=O)c2cc3cc(F)c(NS(C)(=O)=O)cc3[nH]2)c1N [Example 4-2-030, N-[2-[5-amino-1-[6-(2,5-difluorophenoxy)-4-methylpyridin-3-yl]pyrazole-4-carbonyl]-5-fluoro-1H-indol-6-yl]methanesulfonamide]",–,–,–,26,110,1.7
"CC(C)N1CCC(c2cc3cc(C(=O)c4cnn(-c5ccc(Oc6ccccc6F)cc5F)c4N)[nH]c3cc2F)CC1 [Example 4-2-009, [5-amino-1-[2-fluoro-4-(2-fluorophenoxy)phenyl]pyrazol-4-yl]-[6-fluoro-5-(1-propan-2-ylpiperidin-4-yl)-1H-indol-2-yl]methanone]",–,–,–,3.4,5.1,0.81
